The text below walks through data of patent US7285561B2, “Imidazo-substituted compounds as p38 kinase inhibitors” (Roche Palo Alto LLC, priority 2006, dated 2007).

The structures appear in SMILES notation. Counter-ions that a name gives are not always drawn.

One series deals with T1, p-38 MAP kinase (Homo sapiens, UniProt Q16539).
T1 construct: made in house; host or cells: E. coli (co-expressed with SEK-1 and MEKK)
T1 sequence (Q16539 whole entry): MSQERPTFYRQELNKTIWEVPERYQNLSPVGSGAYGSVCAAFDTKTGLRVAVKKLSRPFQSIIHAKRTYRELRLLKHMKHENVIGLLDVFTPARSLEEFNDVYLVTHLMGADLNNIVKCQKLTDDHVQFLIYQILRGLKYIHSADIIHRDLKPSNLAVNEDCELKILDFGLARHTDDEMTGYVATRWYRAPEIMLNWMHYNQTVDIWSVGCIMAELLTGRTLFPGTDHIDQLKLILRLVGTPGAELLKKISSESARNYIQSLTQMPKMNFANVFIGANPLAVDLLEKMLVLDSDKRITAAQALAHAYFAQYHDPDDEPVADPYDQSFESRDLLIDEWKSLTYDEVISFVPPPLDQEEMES
The experiment in a line: Inhibition of p-38 (MAP) kinase, in vitro assay (transfer of γ-phosphate from γ-33P-ATP to Myelin Basic Protein). Particulars: phosphorylated recombinant p38 MAP kinase; substrate MBP and γ-33P-ATP; 30° C.; read-out: IC50, the concentration causing 50% inhibition of the p-38 enzyme. In kind it is biochemical. On the procedure: The p-38 MAP kinase inhibitory activity of compounds of this invention in vitro was determined by measuring the transfer of the γ-phosphate from γ-^33P-ATP by p-38 kinase to Myelin Basic Protein (MBP), using the a minor modification of the method described in Ahn, N. G.; et al. J. of Biol. Chem. Vol. 266(7), 4220-4227, (1991)
The phosphorylated form of the recombinant p38 MAP kinase was expressed with SEK-1 and MEKK in E. Coli (see, Khokhlatchev, A. et al. J. of Biol. Chem. Vol. 272(17), 11057-11062, (1997) and then purified by affinity chromatography using a Nickel column.
The phosphorylated p38 MAP kinase was diluted in kinase buffer (20 mM 3-(N-morpholino)propanesulfonic acid, pH 7.2, 25 mM β-glycerol phosphate, 5 mM ethylene glycol-bis(beta-aminoethyl ether)-N,N,N′,N′-tetraacetic acid, 1 mM sodium vanadate, 1 mM dithiothreitol, 40 mM magnesium chloride). Test compound dissolved in DMSO or only DMSO (control) was added and the samples were incubated for 10 min. at 30° C. The kinase reaction was initiated by the addition of a substrate cocktail containing MBP and γ-^33P-ATP. After incubating for an additional 20 min. at 30° C., the reaction was terminated by adding 0.75% phosphoric acid. The phosphorylated MBP was then separated from the residual γ-^33P-ATP using a phosphocellulose membrane (Millipore, Bedford, Mass.) and quantitated using a scintillation counter (Packard, Meriden, Conn.).
As for `O[C@H]1CC[C@H](Nc2ncc3cc(-c4ccccc4Cl)c4nccn4c3n2)CC1` [Compound 1], the IC50 stood at 10 nM. Still for that read-out and setting: the result for `CS(=O)(=O)N1CCC(Nc2ncc3cc(-c4ccccc4Cl)c4nccn4c3n2)CC1` [Compound 3] reads 2.7 nM; that for `CC(C)(CO)Nc1ncc2cc(-c3ccccc3Cl)c3nccn3c2n1` [Compound 6], 18.8 nM; that for `CC(C)Nc1ncc2cc(-c3ccccc3Cl)c3nccn3c2n1` [Compound 7], 1.4 nM.

With `O[C@H]1CC[C@H](Nc2ncc3c(n2)N2CCN=C2N(c2ccccc2Cl)C3)CC1` [Compound 12], the IC50 stood at 6620 nM.

Turning to `O[C@H]1CC[C@H](Nc2ncc3c(n2)N2CCN=C2C(c2ccccc2Cl)=C3)CC1` [Compound 13], the IC50 came to 1140 nM.

System in a further series: not given
Assay: not given
Conditions: not given
Broadly, the melting point is the temperature of the solid-liquid transition. `Clc1ccccc1-c1cc2cnc(NC3CCOCC3)nc2n2ccnc12` (as salt: HCl) [Compound 2]: the melting point lay within 211 to 214 °C. On the same count and under the same terms, the result for `CS(=O)(=O)N1CCC(Nc2ncc3cc(-c4ccccc4Cl)c4nccn4c3n2)CC1` (as salt: HCl) [Compound 3] reads 188 to 194 °C; that for `O=S1(=O)CCC(Nc2ncc3cc(-c4ccccc4Cl)c4nccn4c3n2)CC1` (as salt: HCl) [Compound 5], 221.8 to 226.8 °C. On the same count and under the same terms, the result for `CC(C)(CO)Nc1ncc2cc(-c3ccccc3Cl)c3nccn3c2n1` (as salt: HCl) [Compound 6] reads 190.8 to 194.3 °C; that for `CC(C)Nc1ncc2cc(-c3ccccc3Cl)c3nccn3c2n1` (as salt: HCl) [Compound 7], 210 to 212.5 °C. The compound `Fc1ccc(CNc2ncc3cc(-c4ccccc4Cl)c4nccn4c3n2)cc1` (as salt: HCl) [Compound 8] yielded a melting point of 178 to 180 °C. The same measure, in the same setting: the result for `CS(=O)(=O)CCNc1ncc2cc(-c3ccccc3Cl)c3nccn3c2n1` (as salt: HCl) [Compound 9] reads 172.2 to 176 °C. In turn, `O[C@H]1CC[C@H](Nc2ncc3cc(-c4ccccc4Cl)c4nccn4c3n2)CC1` [Compound 1] gave a melting point of 116 to 119 °C. Still for that read-out and setting: the result for `O[C@H]1CC[C@H](Nc2ncc3c(n2)N2CCN=C2C(c2ccccc2Cl)=C3)CC1` [Compound 13] reads 169.3 to 175.8 °C.
